Columns and labels:
[1] = tested on: human hepatocellular carcinoma cell line HepG2; assay: MTT cell viability assay, Pt / doxorubicin loaded nanoparticles vs free drug; conditions: concentration based on drug amount, FIG. 7: 72 h after treatment
Description: The human hepatocellular carcinoma cell line HepG2 was used in the assay.
HepG2 cells were grown in a T-75 flask. For the transfer of the cell the medium was removed from the flask and the cells were trypsinated for 5 minutes. The cells were collected in a Falcon tube and diluted with complete cell medium. The cell counting was conducted in a Neubauer chamber. A cell solution was prepared to seed 4000 cells per well (200 μL per well). The microtiter plate was incubated for 24 h at 37° C.
For each NP and drug, formulations in cell medium were prepared. The compounds were tested in different concentrations (0.01, 0.05, 0.2, 1, 5, 25 and 125 μM based on drug amount). For the treatment, the cell medium was removed from all wells and exchanged for drug formulations. 200 μl of treatments per triplicate was added to each well. The microtiter plates were incubated for 24 h, 48 h and 72 h at 37° C.
1.5 mL MTT solution (8.0 mg in 1.6 mL DMSO) was diluted with complete cell medium (phenol-red free). The treatment cell medium was removed from the microtiter plate, the wells were washed with 100 μL PBS and 100 μL of the MTT reactive solution was added to each well. After one hour incubation at 37° C. the MTT solution was removed and 100 μL DMSO was added to dissolve the formazan dye. Absorbance was measured at 570 nm.
Data were analysed using OriginPro8. The normalized data were plotted and the curve was fitted using a non-linear regression curve fit (sigmoidal dose-response curve with variable slope). The Absolute IC50 values were obtained by interpolation.

BEL7404 = assay: In vitro cytotoxicity, BEL7404; type: cell-based
[2] = Tolerability (body weight change), mouse model with human HCC xenograft; type: in vivo; conditions: I.V., five consecutive days
Description: The animals in this case were a mouse model with a human HCC xenograft. Animals dosed intravenously (I.V.) for five consecutive days (shaded area left of dotted vertical line) at either a low dose of 0.15 mg/kg of DM1 alone (inverted triangles) or high dose of 0.45 mg/kg DM1 alone (diamonds) or MTC-100038 at equivalent DM1 doses low (circles) and high (squares). Percentage body weight change was calculated based on animal weight on the first day of dosing. Data points represent percent group mean change in body weight±SEM. Body weight change is positive in the MTC-100038 nanoparticle-treated animals, but negative (low dose) or fatal (high dose) in the free DM1-treated animals.

[3] = tested on: subcutaneous BEL7404 hepatocellular cancer xenograft; assay: Anti-tumour efficacy, subcutaneous BEL7404 xenograft model; type: in vivo, NOD/SCID mice; conditions: for T/C / Tumour size: day 13; for Tumour size: Mean ± SEM
Description: The in vivo anti-tumour efficacy of MTC-100038 in a subcutaneous BEL7404 hepatocellular cancer xenograft model in NOD/SCID mice was evaluated. Briefly NOD/SCID mice (18-22 g, n=10 per group) were implanted subcutaneously with BEL7404 tumour cells (3×10^6) in 0.1 ml of PBS for tumour development. Group/dosing assignment commenced when tumours reached a pre-determined volume of ˜200 mm^3 subcutaneous tumours.
Tumour size was measured twice weekly, and the volume was expressed in mm^3. The tumour size was then used for calculations of T/C values.

[4] = tested on: orthotopic Hep3B-Luc hepatocellular cancer xenograft; assay: Anti-tumour efficacy, orthotopic HEP3B xenograft model (bioluminescence); type: in vivo, BALB/c nude mice; conditions: for T/C (%) / Bioluminescence: day 21; for Bioluminescence: Mean
Description: The in vivo anti-tumour efficacy of MTC-100038 in an orthotopic hepatocellular cancer xenograft model in BALB/c nude mice was evaluated. Briefly, female BALB/c nude mice (18-23 g, n=10/group), were implanted with approximately 3×10^6 Hep3B-Luc cells mixed with BD Matrigel in 20 μL (PBS:Matrigel=1:1). Animals were selected and randomized (based on their bioluminescence density) on day 7 after tumour implantation to 6 groups using randomized block design based upon their bioluminescence.
The tumour bioluminescence was used for the calculation of T/C value (in percent), where T and C are the mean bioluminescence of the treated and control groups, respectively, on a given day. Statistical analysis of difference in bioluminescence among the groups and the analysis of drug interaction were conducted on the data obtained at the best therapeutic time point after the final dose (the 21st day after the start of treatment).
A one-way ANOVA was performed to compare bioluminescence among groups, and when a significant F-statistics (a ratio of treatment variance to the error variance) was obtained, comparisons between groups were carried out with Games-Howell test with p<0.05 statistically significant.

[5] = Pharmacokinetics and biodistribution of DM1, subcutaneous Hep3B xenograft model; type: in vivo, NOD/SCID mouse; conditions: no further decline at 48 hours, dosed article not stated
Description: DM1 tumour concentration (mean±SEM) is shown for MTC-100038-treated (equivalent DM1 dose 0.06 mg/kg) animals (left-hand bars) and free DM1-treated animals (also 0.06 mg/kg dose) (right-hand bars). Time points are 2 hours (solid fill), 24 hours (horizontal lines) and 48 hours (checked pattern).
The in vivo pharmacokinetics and biodistribution of DM1 was studied in the subcutaneous Hep3B human hepatocellular cancer xenograft model (Table 1). The concentration of gold and DM1 in liver and kidney samples was evaluated 2, 24 and 48 hours after the last drug administration.

[6] = tested on: subcutaneous Hep3B hepatocellular cancer xenograft; assay: Anti-tumour efficacy, subcutaneous HEP3B xenograft model; type: in vivo, NOD/SCID mice; conditions: 0.1125 mg/kg i.v. QD×5, day 13
Description: The in vivo anti-tumour efficacy of MTC-100038 in a subcutaneous Hep3B hepatocellular cancer xenograft model in NOD/SCID mice was evaluated. Briefly NOD/SCID mice (18-22 g, n=10 per group) were implanted subcutaneously with HEP 3B hepatocellular cells (3×10^6) in 0.1 mL PBS for tumour development. Group/dosing assignment commenced when tumours reached a pre-determined volume of ˜200 mm^3 subcutaneous tumours (n=10 per group). Tumour size was measured twice weekly, and the volume was expressed in mm^3. The tumour size was then used for calculations of T/C values. The T/C value (in percent) is an indication of anti-tumour effectiveness (optimally, a test article is considered to have anti-tumour activity when T/C is 50% or less); T and C are the mean volumes of the treated and control groups, respectively, on a given day.

[7] = tested on: HCC cell lines HEPG2 and HEP3B; assay: Cytotoxicity of gold nanoparticle constructs vs free DM1 (text values); type: cell-based, human; conditions: line for the value not stated
Description: (§1) The cytotoxicity of gold nanoparticle constructs GalC2-PEG8COOH-GNP (parent, non-functionalised gold nanoparticle (MTC-100011)), and MTC-100038 were compared to free DM1 drug in the HCC cell lines HEPG2 and HEP3B.

Hep3B cells = assay: In vitro cytotoxicity, Hep3B; type: cell-based, human
Description: A lower bar height indicates higher cytotoxic potency.
as §1

[8] = Tolerability (body weight change), Hep3B orthotopic xenograft model; type: in vivo, BALB/c nude mice; conditions: daily oral administration for 21 days
Description: The animals in this case were a mouse HCC model with a Hep3B orthotopic xenograft. MTC-100038, DM1, or vehicle were administered I.V. to BALB/c nude mice in 2×5 day cycles (shaded), whilst Sorafenib was administered by daily oral administration for 21 days (dashed line) at a dose of 60 mg/kg, which was the highest tolerated dose in this model. Percentage body weight change was calculated based on animal weight on the first day of dosing. Data points represent percent group mean change in body weight±SEM. Treatment groups were: Vehicle (black circles), Sorafenib 60 mg/kg (squares), free DM1 0.150 mg/kg (triangles), MTC-100038 0.225 mg/kg (green circles), MTC-100038 0.338 mg/kg (diamonds) and MTC-100038 0.450 mg/kg (inverted triangles).

HCC cells = assay: In vitro targeting of GNPs to HCC cells (counts per field); type: cell-based; conditions: relative to base GNP lacking the peptide
Description: (SEQ ID NO: 1), via its N-terminus (approx. 4 peptide molecules per nanoparticle).
Several base/peptide targeted GNPs were screened in vitro. GNPs having a mixed corona comprising galactose-C2-SH (Gal-C2) ligands and HSPEG8COOH were synthesised according to methodology analogous to that described above in Examples 1 and 2, with however galactose-C2-SH replacing glucose-C2-SH and HSPEG8COOH (also abbreviated SH-EG8-COOH or SH—(OCH2CH2)8—COOH) replacing the amino linker NH2-EG6-SH.
The glypican-3 peptide described in U.S. Pat. No. 8,388,937B2 (the contents of which are expressly incorporated herein by reference)—see SEQ ID NO: 1 thereof, which has the amino acid sequence: […] (SEQ ID NO: 1) was linked to the terminal COOH group of a proportion of the HSPEG8COOH ligands via the N-terminus of said peptide. In a “high loading” GNP construct (see row 1 in the table below), approximately 4 peptides were linked per nanoparticle core. The “high loading” Au@Gal-C2:HSPEG8COOH:HSPEG8CONH[…] The “low loading” Au@Gal-C2:HSPEG8COOH:HSPEG8CONH[…]

[9] = 0.15 mg/kg i.v. QD×5 (D0-4) + QD×5 (D8-12)

platinum-(IV)-succinate
IC50 [1]: 38600 nM
IC50 ([1]; listed as Pt(IV)-succinate): 38600 nM

COc1cc2cc(c1Cl)N(C)C(=O)C[C@H](OC(=O)[C@H](C)N(C)C(=O)CCS)[C@]1(C)O[C@H]1[C@H](C)[C@@H]1C[C@@](O)(NC(=O)O1)[C@H](OC)/C=C/C=C(\C)C2 [DM1, maytansinoid DM1]
IC50 (BEL7404): 9 nM
body weight change, low dose ([2]; 0.15 mg/kg DM1 or equivalent DM1 dose): negative
body weight change, high dose ([2]; 0.45 mg/kg DM1 or equivalent DM1 dose): fatal
anti-tumour activity compared to vehicle ([3]; 0.15 mg/kg): no anti-tumour activity
T/C [3, 9]: 113.2%
Tumour size [3, 9]: 2656 ± 180 mm^3
anti-tumour activity compared with vehicle group ([4]; 0.15 mg/kg): no anti-tumour activity
T/C (%) [4, 9]: 83.4%
Bioluminescence [4, 9]: 1.21E+10 photons/s
decline of DM1 concentration in the tumour between 2 and 24 hours [5]: about 40%
T/C [6]: 78.9%
Tumour size ([6]; Mean ± SEM): 1217 ± 254 mm^3
IC50 [7]: 4.15 nM
IC50 (Hep3B cells): 11 nM

COc1cccc2c1C(=O)c1c(O)c3c(c(O)c1C2=O)C[C@@](O)(C(=O)CO)C[C@@H]3O[C@H]1C[C@H](N)[C@H](O)[C@H](C)O1 [Doxorubicin, doxorubicin]
IC50 ([1]; Homo sapiens): 60 nM

CNC(=O)c1cc(Oc2ccc(NC(=O)Nc3ccc(Cl)c(C(F)(F)F)c3)cc2)ccn1 [Sorafenib]
anti-tumour activity compared to vehicle ([3]; 60 mg/kg over 21 days): significant tumour growth inhibition
T/C ([3]; 60 mg/kg p.o. QD×21): 41.9%
Tumour size ([3]; 60 mg/kg p.o. QD×21): 984 ± 64 mm^3
highest tolerated dose [8]: 60 mg/kg
anti-tumour activity compared with vehicle group ([4]; 60 mg/kg): significant anti-tumour activity
T/C (%) ([4]; 60 mg/kg p.o. QD×21): 22.3%
Bioluminescence ([4]; 60 mg/kg p.o. QD×21): 3.24E+09 photons/s
Bioluminescence ([4]; 60 mg/kg p.o. QD×21, listed as sorafenib): 3.24×10^9 photons/s

GNP-GalC2(50)-AL(50)-(Ac)YFLTTRQ
Fold-targeting (over base particle) (HCC cells): 5.0 fold
Fold-targeting (over base particle) (HCC cells; listed as Au@GalC2:AL:AL-(Ac)-YFLTTRQ): approximately 5 fold

From patent publication US11179344B2, “Nanoparticle-based liver-targeting therapy” (Midatech Limited, priority 2017, dated 2021)
